Values quoted from earlier work as cited in patent US20040023937A1, “Anti-cancer formulation” (Greystone Medical Group, Inc., priority 2002, published 2004).

Columns and labels:
human fibrosarcoma cells = conditions: reported
MMP-9 = conditions: gelatin degrading matrix metalloproteinase; mechanism reported to be thought to involve it
MMP-2 = conditions: second of two gelatin degrading MMP's; reported

Which anti-invasive activity (human fibrosarcoma cells) does the source give for `C[C@H]1[C@H](C)CC[C@]2(C(=O)O)CC[C@]3(C)C(=CC[C@@H]4[C@@]5(C)CC[C@H](O)C(C)(C)[C@@H]5CC[C@]43C)[C@H]12` [Ursolic acid] here?
Its anti-invasive activity is “anti-invasive activity”.

And the “down-regulation of MMP-9” value (MMP-9)?
Its value is “down-regulation”.

And the “effect on MMP-2” value (MMP-2)?
Its value is “no effect”.
